Data reported in the kinase profiling compilation of Christmann-Franck et al. (2016).

Assays:
Experiment in all cases: KINOMEscan competition binding
Settings in all cases: compound 10.0 µM
[1] = molecular target: AAK1 (human) (UniProt Q2M2I8)
[2] = molecular target: AURKC (human) (UniProt Q9UQB9)
[3] = molecular target: BMP2K (human) (UniProt Q9NSY1)
[4] = molecular target: BRSK1 (human) (UniProt Q8TDC3)
[5] = molecular target: CDK18 (human) (UniProt Q07002)
[6] = molecular target: CDK2 (human) (UniProt P24941)
[7] = molecular target: CIT (human) (UniProt O14578)
[8] = molecular target: CLK3 (human) (UniProt P49761)
[9] = molecular target: CSNK1G3 (human) (UniProt Q9Y6M4)
[10] = molecular target: CSNK2A1 (human) (UniProt P68400)
[11] = tested on: EGFR (human), P00533 [752-759 del]
[12] = tested on: EGFR (human), P00533 [P753S; 747-752 del]
[13] = molecular target: EIF2AK2 (human) (UniProt P19525)
[14] = molecular target: FLT3 (human) (UniProt P36888)
[15] = tested on: FLT3 (human), P36888 [D835Y]
[16] = tested on: FLT3 (human), P36888 [ITD]
[17] = molecular target: GSK3A (human) (UniProt P49840)
[18] = molecular target: LIMK1 (human) (UniProt P53667)
[19] = molecular target: MAP3K4 (human) (UniProt Q9Y6R4)
[20] = molecular target: MAP3K7 (human) (UniProt O43318)
[21] = molecular target: MAP4K5 (human) (UniProt Q9Y4K4)
[22] = molecular target: MELK (human) (UniProt Q14680)
[23] = molecular target: MERTK (human) (UniProt Q12866)
[24] = molecular target: MYLK (human) (UniProt Q15746)
[25] = molecular target: MYLK4 (human) (UniProt Q86YV6)
[26] = molecular target: MYO3B (human) (UniProt Q8WXR4)
[27] = molecular target: NEK1 (human) (UniProt Q96PY6)
[28] = molecular target: NEK9 (human) (UniProt Q8TD19)
[29] = molecular target: PAK7 (human) (UniProt Q9P286)
[30] = molecular target: PDGFRB (human) (UniProt P09619)
[31] = molecular target: PIK3CB (human) (UniProt P42338)
[32] = molecular target: PTK2B (human) (UniProt Q14289)
[33] = molecular target: RIOK2 (human) (UniProt Q9BVS4)
[34] = molecular target: RIPK4 (human) (UniProt P57078)
[35] = molecular target: SIK2 (human) (UniProt Q9H0K1)
[36] = molecular target: SRC (human) (UniProt P12931)
[37] = molecular target: SRMS (human) (UniProt Q9H3Y6)
[38] = molecular target: STK17B (human) (UniProt O94768)
[39] = molecular target: SYK (human) (UniProt P43405)
[40] = molecular target: TTK (human) (UniProt P33981)
[41] = molecular target: TYK2 JH1 catalytic (human) (UniProt P29597)
[42] = molecular target: WEE2 (human) (UniProt P0C1S8)

Chain of CDK18 (human) (Q07002 whole entry, looked up): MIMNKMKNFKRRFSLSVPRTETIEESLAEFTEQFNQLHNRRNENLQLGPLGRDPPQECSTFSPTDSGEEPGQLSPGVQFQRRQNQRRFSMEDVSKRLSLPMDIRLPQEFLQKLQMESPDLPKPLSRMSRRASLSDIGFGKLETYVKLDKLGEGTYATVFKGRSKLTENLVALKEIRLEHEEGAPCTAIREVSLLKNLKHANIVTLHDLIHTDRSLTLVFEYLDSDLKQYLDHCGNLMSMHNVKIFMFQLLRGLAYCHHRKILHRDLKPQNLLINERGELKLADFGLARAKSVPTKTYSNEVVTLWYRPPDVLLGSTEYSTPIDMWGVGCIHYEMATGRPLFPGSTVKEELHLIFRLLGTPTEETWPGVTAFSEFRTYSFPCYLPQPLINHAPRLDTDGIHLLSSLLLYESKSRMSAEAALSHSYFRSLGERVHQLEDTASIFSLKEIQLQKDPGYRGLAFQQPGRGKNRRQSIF
Chain of AURKC (human) (Q9UQB9 whole entry, looked up): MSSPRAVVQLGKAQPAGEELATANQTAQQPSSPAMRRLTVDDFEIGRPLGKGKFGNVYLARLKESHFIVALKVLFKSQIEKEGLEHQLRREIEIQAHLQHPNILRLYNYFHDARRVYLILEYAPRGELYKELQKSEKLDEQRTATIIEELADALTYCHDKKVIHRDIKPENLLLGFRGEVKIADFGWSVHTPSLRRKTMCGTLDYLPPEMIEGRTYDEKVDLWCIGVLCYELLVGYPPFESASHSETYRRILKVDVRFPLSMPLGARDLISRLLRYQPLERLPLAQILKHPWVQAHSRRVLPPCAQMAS
Chain of MYLK4 (human) (Q86YV6 whole entry, looked up): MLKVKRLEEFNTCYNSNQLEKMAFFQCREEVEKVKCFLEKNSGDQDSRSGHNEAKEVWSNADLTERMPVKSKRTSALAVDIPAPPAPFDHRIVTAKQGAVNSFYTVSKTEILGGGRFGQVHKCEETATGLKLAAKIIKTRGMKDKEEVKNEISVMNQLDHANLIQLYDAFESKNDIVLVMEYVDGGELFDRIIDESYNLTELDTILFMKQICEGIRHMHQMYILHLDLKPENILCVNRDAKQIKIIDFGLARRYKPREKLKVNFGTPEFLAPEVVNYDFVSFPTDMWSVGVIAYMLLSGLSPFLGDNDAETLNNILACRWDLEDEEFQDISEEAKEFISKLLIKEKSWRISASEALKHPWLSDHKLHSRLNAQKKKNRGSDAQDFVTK
Chain of MYO3B (human) (Q8WXR4 whole entry, looked up): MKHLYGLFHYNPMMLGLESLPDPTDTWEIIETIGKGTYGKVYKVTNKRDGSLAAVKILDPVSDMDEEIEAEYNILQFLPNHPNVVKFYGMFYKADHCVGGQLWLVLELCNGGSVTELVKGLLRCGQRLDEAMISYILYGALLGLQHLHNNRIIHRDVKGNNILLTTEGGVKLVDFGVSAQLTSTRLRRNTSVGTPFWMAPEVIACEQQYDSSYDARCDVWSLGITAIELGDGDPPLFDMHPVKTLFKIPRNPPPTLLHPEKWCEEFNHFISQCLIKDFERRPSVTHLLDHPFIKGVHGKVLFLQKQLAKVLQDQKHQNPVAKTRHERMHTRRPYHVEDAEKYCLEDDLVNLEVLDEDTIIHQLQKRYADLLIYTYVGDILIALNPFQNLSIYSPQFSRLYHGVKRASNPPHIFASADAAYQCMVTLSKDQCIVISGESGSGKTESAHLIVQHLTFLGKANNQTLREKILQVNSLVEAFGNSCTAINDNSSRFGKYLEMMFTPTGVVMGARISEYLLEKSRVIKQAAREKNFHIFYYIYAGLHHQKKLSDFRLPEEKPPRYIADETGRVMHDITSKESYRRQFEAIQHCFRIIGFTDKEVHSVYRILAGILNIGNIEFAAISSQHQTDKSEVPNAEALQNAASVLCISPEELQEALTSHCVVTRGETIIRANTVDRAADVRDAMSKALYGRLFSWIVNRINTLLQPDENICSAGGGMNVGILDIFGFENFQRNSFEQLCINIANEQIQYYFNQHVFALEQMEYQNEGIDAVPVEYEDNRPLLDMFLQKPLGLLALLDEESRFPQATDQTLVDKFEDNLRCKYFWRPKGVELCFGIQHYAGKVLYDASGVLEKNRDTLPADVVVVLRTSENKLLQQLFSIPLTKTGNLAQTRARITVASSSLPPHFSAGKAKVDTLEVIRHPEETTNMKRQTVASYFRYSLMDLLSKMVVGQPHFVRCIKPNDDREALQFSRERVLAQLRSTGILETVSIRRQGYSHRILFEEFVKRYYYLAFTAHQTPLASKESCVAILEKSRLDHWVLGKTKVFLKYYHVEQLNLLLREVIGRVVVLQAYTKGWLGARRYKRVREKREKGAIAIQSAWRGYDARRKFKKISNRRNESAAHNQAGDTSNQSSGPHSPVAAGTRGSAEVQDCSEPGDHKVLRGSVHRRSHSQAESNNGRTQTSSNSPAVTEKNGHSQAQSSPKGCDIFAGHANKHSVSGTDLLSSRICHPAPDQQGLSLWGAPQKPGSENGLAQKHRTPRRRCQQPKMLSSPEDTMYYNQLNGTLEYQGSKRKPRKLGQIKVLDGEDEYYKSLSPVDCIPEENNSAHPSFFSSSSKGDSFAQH
Chain of MAP4K5 (human) (Q9Y4K4 whole entry, looked up): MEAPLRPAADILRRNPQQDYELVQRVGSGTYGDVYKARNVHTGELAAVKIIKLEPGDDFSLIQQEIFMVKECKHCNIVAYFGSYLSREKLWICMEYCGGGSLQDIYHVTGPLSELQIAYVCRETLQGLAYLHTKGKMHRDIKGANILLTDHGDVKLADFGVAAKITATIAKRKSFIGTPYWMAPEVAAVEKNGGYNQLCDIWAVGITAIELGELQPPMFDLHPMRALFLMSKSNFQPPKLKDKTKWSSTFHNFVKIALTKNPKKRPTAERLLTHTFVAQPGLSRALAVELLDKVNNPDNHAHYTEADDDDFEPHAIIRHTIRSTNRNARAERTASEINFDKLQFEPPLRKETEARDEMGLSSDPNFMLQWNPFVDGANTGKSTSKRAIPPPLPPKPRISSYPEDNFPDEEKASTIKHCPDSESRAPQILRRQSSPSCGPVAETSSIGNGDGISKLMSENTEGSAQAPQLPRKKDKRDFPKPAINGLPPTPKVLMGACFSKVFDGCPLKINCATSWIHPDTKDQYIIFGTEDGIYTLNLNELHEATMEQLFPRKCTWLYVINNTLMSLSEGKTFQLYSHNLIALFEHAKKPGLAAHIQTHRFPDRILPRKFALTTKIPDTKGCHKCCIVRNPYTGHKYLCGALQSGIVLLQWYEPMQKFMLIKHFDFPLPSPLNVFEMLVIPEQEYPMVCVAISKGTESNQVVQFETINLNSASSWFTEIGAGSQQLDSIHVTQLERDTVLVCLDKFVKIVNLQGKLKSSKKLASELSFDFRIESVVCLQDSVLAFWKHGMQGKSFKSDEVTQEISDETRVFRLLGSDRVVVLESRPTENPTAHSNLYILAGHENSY
Chain of MAP3K7 (human) (O43318 whole entry, looked up): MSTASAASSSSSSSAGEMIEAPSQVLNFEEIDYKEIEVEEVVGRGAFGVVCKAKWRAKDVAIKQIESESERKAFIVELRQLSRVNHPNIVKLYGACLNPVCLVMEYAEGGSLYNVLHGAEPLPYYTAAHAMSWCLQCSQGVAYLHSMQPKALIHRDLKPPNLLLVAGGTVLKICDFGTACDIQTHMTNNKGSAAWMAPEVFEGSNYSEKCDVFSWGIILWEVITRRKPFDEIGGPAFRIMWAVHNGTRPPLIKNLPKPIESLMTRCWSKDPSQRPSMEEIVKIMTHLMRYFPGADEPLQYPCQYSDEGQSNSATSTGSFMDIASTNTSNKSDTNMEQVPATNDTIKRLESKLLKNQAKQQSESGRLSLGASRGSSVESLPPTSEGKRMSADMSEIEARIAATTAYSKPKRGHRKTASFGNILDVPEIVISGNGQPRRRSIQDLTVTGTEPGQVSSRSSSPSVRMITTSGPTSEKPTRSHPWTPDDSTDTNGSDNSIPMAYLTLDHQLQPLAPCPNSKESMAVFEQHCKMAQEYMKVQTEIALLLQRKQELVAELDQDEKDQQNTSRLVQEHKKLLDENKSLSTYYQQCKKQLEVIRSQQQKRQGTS
Chain of RIPK4 (human) (P57078 whole entry, looked up): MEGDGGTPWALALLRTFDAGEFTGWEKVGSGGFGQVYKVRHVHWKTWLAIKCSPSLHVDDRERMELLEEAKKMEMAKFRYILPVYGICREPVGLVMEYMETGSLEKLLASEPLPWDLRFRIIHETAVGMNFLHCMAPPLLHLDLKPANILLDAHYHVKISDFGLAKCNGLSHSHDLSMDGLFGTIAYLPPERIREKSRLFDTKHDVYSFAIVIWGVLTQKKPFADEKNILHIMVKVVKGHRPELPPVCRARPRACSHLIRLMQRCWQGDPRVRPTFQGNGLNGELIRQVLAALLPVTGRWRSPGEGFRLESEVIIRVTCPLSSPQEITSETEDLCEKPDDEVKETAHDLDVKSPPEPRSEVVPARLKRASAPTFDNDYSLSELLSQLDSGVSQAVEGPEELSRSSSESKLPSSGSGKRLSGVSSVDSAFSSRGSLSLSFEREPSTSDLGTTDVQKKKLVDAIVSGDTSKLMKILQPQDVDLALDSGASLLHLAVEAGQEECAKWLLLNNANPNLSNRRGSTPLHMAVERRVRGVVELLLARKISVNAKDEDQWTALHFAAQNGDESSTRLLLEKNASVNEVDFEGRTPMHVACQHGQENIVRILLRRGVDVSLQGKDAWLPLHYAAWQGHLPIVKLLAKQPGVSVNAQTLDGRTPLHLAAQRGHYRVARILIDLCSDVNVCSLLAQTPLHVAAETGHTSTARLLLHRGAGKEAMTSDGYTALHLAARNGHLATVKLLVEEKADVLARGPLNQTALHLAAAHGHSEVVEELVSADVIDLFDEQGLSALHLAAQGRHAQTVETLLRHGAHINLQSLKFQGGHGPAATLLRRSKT

`COc1cc(N2CCN(C)CC2)ccc1Nc1ncc2c(n1)N(C)c1ccccc1N(C)C2=O` gave a kinase still bound, per cent of control [1] of 88%, a kinase still bound, per cent of control [2] of 86% and a kinase still bound, per cent of control [3] of 100%. The kinase still bound, per cent of control [4] was 84%, the kinase still bound, per cent of control [5] was 100% and the kinase still bound, per cent of control [6] was 75%. For the same compound, the kinase still bound, per cent of control [7] was 95%, the kinase still bound, per cent of control [8] was 100% and the kinase still bound, per cent of control [9] was 98%. It also gave a kinase still bound, per cent of control [10] of 88%, a kinase still bound, per cent of control [11] of 100% and a kinase still bound, per cent of control [12] of 100%. The kinase still bound, per cent of control [13] was 93%, the kinase still bound, per cent of control [14] was 96% and the kinase still bound, per cent of control [15] was 75%. It also gave a kinase still bound, per cent of control [16] of 92%, a kinase still bound, per cent of control [17] of 100% and a kinase still bound, per cent of control [18] of 95%. For the same compound, the kinase still bound, per cent of control [19] was 100%, the kinase still bound, per cent of control [20] was 100% and the kinase still bound, per cent of control [21] was 91%. For the same compound, the kinase still bound, per cent of control [22] was 80%, the kinase still bound, per cent of control [23] was 100% and the kinase still bound, per cent of control [24] was 97%. It also gave a kinase still bound, per cent of control [25] of 100%, a kinase still bound, per cent of control [26] of 89% and a kinase still bound, per cent of control [27] of 96%. For the same compound, the kinase still bound, per cent of control [28] was 97%, the kinase still bound, per cent of control [29] was 79% and the kinase still bound, per cent of control [30] was 98%. It also gave a kinase still bound, per cent of control [31] of 83%, a kinase still bound, per cent of control [32] of 100% and a kinase still bound, per cent of control [33] of 50%. For the same compound, the kinase still bound, per cent of control [34] was 100%, the kinase still bound, per cent of control [35] was 89% and the kinase still bound, per cent of control [36] was 88%. It also gave a kinase still bound, per cent of control [37] of 100%, a kinase still bound, per cent of control [38] of 100% and a kinase still bound, per cent of control [39] of 99%. The kinase still bound, per cent of control [40] was 95%, the kinase still bound, per cent of control [41] was 94% and the kinase still bound, per cent of control [42] was 100%.

`COc1cc(N2CCC(O)CC2)ccc1Nc1ncc2c(n1)N1CCc3cccc(c31)C(=O)N2C` gave a kinase still bound, per cent of control [1] of 35%, a kinase still bound, per cent of control [2] of 89% and a kinase still bound, per cent of control [3] of 84%. The kinase still bound, per cent of control [4] was 100%, the kinase still bound, per cent of control [5] was 100% and the kinase still bound, per cent of control [6] was 87%. The kinase still bound, per cent of control [7] was 10%, the kinase still bound, per cent of control [8] was 100% and the kinase still bound, per cent of control [9] was 90%. For the same compound, the kinase still bound, per cent of control [10] was 100%, the kinase still bound, per cent of control [11] was 81% and the kinase still bound, per cent of control [12] was 91%. For the same compound, the kinase still bound, per cent of control [13] was 48%, the kinase still bound, per cent of control [14] was 95% and the kinase still bound, per cent of control [15] was 68%. For the same compound, the kinase still bound, per cent of control [16] was 100%, the kinase still bound, per cent of control [17] was 100% and the kinase still bound, per cent of control [18] was 96%. It also gave a kinase still bound, per cent of control [19] of 84%, a kinase still bound, per cent of control [20] of 98% and a kinase still bound, per cent of control [21] of 99%. For the same compound, the kinase still bound, per cent of control [22] was 78%, the kinase still bound, per cent of control [23] was 100% and the kinase still bound, per cent of control [24] was 16%. For the same compound, the kinase still bound, per cent of control [25] was 100%, the kinase still bound, per cent of control [26] was 77% and the kinase still bound, per cent of control [27] was 60%. For the same compound, the kinase still bound, per cent of control [28] was 77%, the kinase still bound, per cent of control [29] was 64% and the kinase still bound, per cent of control [30] was 87%. It also gave a kinase still bound, per cent of control [31] of 92%, a kinase still bound, per cent of control [32] of 57% and a kinase still bound, per cent of control [33] of 100%. For the same compound, the kinase still bound, per cent of control [34] was 79%, the kinase still bound, per cent of control [35] was 100% and the kinase still bound, per cent of control [36] was 100%. For the same compound, the kinase still bound, per cent of control [37] was 87%, the kinase still bound, per cent of control [38] was 100% and the kinase still bound, per cent of control [39] was 100%. The kinase still bound, per cent of control [40] was 6.1%, the kinase still bound, per cent of control [41] was 64% and the kinase still bound, per cent of control [42] was 87%.
